The values that follow come from paper PMC4998004, “aPKC Inhibition by Par3 CR3 Flanking Regions Controls Substrate Access and Underpins Apical-Junctional Polarization” (Developmental Cell, 2016).

Substitutions are numbered along the chain they refer to. Non-standard residues stand in square brackets, D forms with d. Residues, ends and D or L forms follow the SMILES beside them. No end group written: not given here. pS = N[C@@H](COP(=O)(O)O)C(=O)O

Experiment [1] concerns the target T1, PKCιKD-2P (primed human PKC-iota kinase domain) (Homo sapiens, UniProt P41743, C595S).
T1 construct: encoding residues 248–596 (GenBank: NM_002740.5); GST (followed by a 3C protease site) (N, cleaved yes); made in house; host or cells: Hi5 insect cells, baculovirus, co-infected with a PDK-1 virus
T1 sequence (P41743 248-596 C595S): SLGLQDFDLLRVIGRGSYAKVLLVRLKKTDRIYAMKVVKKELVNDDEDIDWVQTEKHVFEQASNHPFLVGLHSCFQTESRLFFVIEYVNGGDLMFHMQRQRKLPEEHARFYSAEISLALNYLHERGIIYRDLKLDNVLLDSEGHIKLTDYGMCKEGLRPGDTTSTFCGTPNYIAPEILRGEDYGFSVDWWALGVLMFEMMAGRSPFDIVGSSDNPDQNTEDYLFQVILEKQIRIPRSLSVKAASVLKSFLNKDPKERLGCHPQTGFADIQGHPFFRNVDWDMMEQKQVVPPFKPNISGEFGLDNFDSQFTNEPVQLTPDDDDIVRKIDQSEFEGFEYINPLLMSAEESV
The experiment in a line: In vitro kinase assay (ADP Quest), peptide as substrate, Michaelis-Menten kinetics. The format is biochemical. The note with it: for increase of apparent kcat relative to wild-type Par3CR3: phosphorylation by PKCιKD-2P, Figures 5A and 5C. Here is the method: (§1) The ADP Quest kit (DiscoveRx) was used to determine the kcat app and KM app values for ATP against the PKCιKD-1P and PKCιKD-2P using a series of synthetic peptide substrates as described by [Kjaer et al. (2013)]. The reactions were measured every 2 min for 30 min in a 384-well plate using a Safire^2 plate reader (Tecan). The kinetic constants were determined by fitting the data to the Michaelis-Menten equation. Data are represented as mean ± SEM. Fluorescence anisotropy assays were performed to determine the KD for each peptide labeled with a fluorescein tag following standard protocols using a Safire^2 plate reader (Tecan). The anisotropy values were normalized and the KD was determined using non-linear regression. All experiments were performed in triplicate and for at least three independent protein preparations.
The ADP Quest kit (DiscoveRx) was used to determine the kcat app and Km app values for ATP against the PKCι KD-1P and PKCι KD-2P. The assay uses a coupled reaction to convert ADP to a product that has a fluorescence excitation at 530 nm and emission at 590 nm. Several synthetic peptide substrates were used including a model peptide […]
(§2) ([…]) derived from a PKCε pseudo-substrate sequence with an alanine-serine change. We found this peptide to be an efficient substrate peptide for aPKC isozymes. Peptides from human Par3CR3 (residues 816-835) and F-X-R short […]
peptide ([…]) related to the Nishikawa and co-workers consensus were also used in the study (Nishikawa et al., 1997). For the kcat app and Km app reactions, the ATP concentration ranged from 0-200 µM, while the synthetic peptide substrates were kept constant at 200 µM to avoid product inhibition. The reactions were measured every two minutes for 30 minutes in a 384-well plate using a Safire 2 plate reader (Tecan). The kinetic constants were determined by fitting the data to Michaelis–Menten equation using the graphics program Prism (GraphPad Prism, version 5.0d, GraphPad Software). […]

Experiment [2] deals with T1, PKCιKD-2P (primed human PKC-iota kinase domain). The experiment in a line: Fluorescence anisotropy binding assay with fluorescein-labelled peptides. Conditions: for Kd: Figure S4D, fluorescein-labelled εPSS peptides. Here is the method: as §1, with “preparations. […]” for “preparations.”
Several synthetic peptide substrates were used including a model peptide […]
as §2
peptide ([…]) related to the Nishikawa and co-workers consensus were also used in the study (Nishikawa et al., 1997). […]
The kinetic constants were determined by fitting the data to […]
Fluorescence anisotropy binding assays
Fluorescence anisotropy assays were performed to determine the Kd for each peptide following a previously described protocol (Guettler et al., 2008). Binding assays were performed in 20 mM Tris pH 7.5, 50 mM NaCl, 5% glycerol and 0.5 mM TCEP. The reaction mixtures contained fluorescein labelled peptides at a constant 50 nM concentration, while the protein concentration ranged from 0-200 µM. The 20 µl reactions were carried out in 384-well plate and measured after 30 minutes on the Safire2 plate reader (Tecan) with the excitation at 470 nm and emission at 525 nm. […]
On the technique in general: In fluorescence polarisation assays a small probe gives low polarisation when free and higher when bound to something large.

The target in experiment [3] is T2, human PKC-iota kinase domain, primed active form (PKCιKD-2P) (human, UniProt P41743 248-596, phosphothreonine at 412 and 564 (pT412, pT564)).
T2 sequence (looked up): T1 sequence (P41743 248-596 C595S) with S348C
The experiment in a line: cell-based or functional assay.

Experiment [4] deals with T3, human PKC-iota kinase domain, primed active form (PKCιKD-2P) (human, UniProt P41743 248-596, phosphothreonine at 412 and 564 (pT412, pT564)).
T3 chain: T1 sequence (P41743 248-596 C595S) with S348C
The experiment in a line: FP.

For orientation: Kd means the equilibrium constant for the complex coming apart.

As to `CSCC[C@H](NC(=O)[C@H](CO)NC(=O)[C@H](CCC(N)=O)NC(=O)[C@H](CCCNC(=N)N)NC(=O)CNC(=O)[C@H](Cc1ccccc1)NC(=O)CNC(=O)[C@H](CCC(=O)O)NC(=O)[C@H](C)NC(=O)[C@H](CCC(N)=O)NC(=O)[C@H](C)NC(=O)[C@H](C)NC(=O)[C@@H](N)CC(C)C)C(=O)N[C@@H](CO)C(=O)N[C@@H](CCC(=O)O)C(=O)N[C@@H](CCCCN)C(=O)N[C@@H](CCCNC(=N)N)C(=O)N[C@H](C(=O)N[C@@H](CCCCN)C(=O)N[C@@H](CCC(N)=O)C(=O)O)[C@@H](C)O` [Par-3CR3AXA] (H-LAAQAEGFGRQSMSEKRTKQ-OH; N-terminus and C-terminus assumed), the “increase of apparent kcat relative to wild-type Par3CR3” value in experiment [1] stood at 57 fold. Regarding `CSCC[C@H](NC(=O)[C@H](C)NC(=O)[C@H](CCC(N)=O)NC(=O)[C@H](CCCNC(=N)N)NC(=O)CNC(=O)[C@H](Cc1ccccc1)NC(=O)CNC(=O)[C@H](CCC(=O)O)NC(=O)[C@H](CCCNC(=N)N)NC(=O)[C@H](CCC(N)=O)NC(=O)[C@H](Cc1ccccc1)NC(=O)[C@H](C)NC(=O)[C@@H](N)CC(C)C)C(=O)N[C@@H](CO)C(=O)N[C@@H](CCC(=O)O)C(=O)N[C@@H](CCCCN)C(=O)N[C@@H](CCCNC(=N)N)C(=O)N[C@H](C(=O)N[C@@H](CCCCN)C(=O)N[C@@H](CCC(N)=O)C(=O)O)[C@@H](C)O` [S827A] (H-LAFQREGFGRQAMSEKRTKQ-OH; N-terminus and C-terminus assumed), the kcat app in experiment [1] (Figure 5A, ADP Quest, read every 2 min for 30 min, Michaelis-Menten fit, mean ± SEM) came to 0.0167 ± 0.0017 s⁻¹. In the case of `CSCC[C@H](NC(=O)[C@H](CCCNC(=N)N)NC(=O)[C@@H](N)CCC(=O)O)C(=O)N[C@@H](CCCNC(=N)N)C(=O)N1CCC[C@H]1C(=O)N[C@@H](Cc1ccccc1)C(=O)N[C@@H](CCCCN)C(=O)N[C@@H](CCCNC(=N)N)C(=O)N[C@@H](CCC(N)=O)C(=O)NCC(=O)N[C@@H](CO)C(=O)N[C@H](C(=O)N[C@@H](CCCNC(=N)N)C(=O)N[C@@H](CCCNC(=N)N)C(=O)N[C@@H](CCCNC(=N)N)C(=O)N[C@H](C(=O)N[C@@H](Cc1c[nH]cn1)C(=O)N[C@@H](CCC(N)=O)C(=O)N[C@H](C(=O)N[C@@H](CC(N)=O)C(=O)O)C(C)C)C(C)C)C(C)C` [ε -5Fpss] (H-ERMRPFKRQGSVRRRVHQVN-OH), the Kd in experiment [2] worked out at 1.8 ± 0.1 µM. Same read-out and setting: the value for `CSCC[C@H](NC(=O)[C@H](CCCNC(=N)N)NC(=O)[C@@H](N)CCC(=O)O)C(=O)N[C@@H](CCCNC(=N)N)C(=O)N1CCC[C@H]1C(=O)N[C@@H](CCCNC(=N)N)C(=O)N[C@@H](CCCCN)C(=O)N[C@@H](CCCNC(=N)N)C(=O)N[C@@H](CCC(N)=O)C(=O)NCC(=O)N[C@@H](CO)C(=O)N[C@H](C(=O)N[C@@H](CCCNC(=N)N)C(=O)N[C@@H](CCCNC(=N)N)C(=O)N[C@@H](CCCNC(=N)N)C(=O)N[C@H](C(=O)N[C@@H](Cc1c[nH]cn1)C(=O)N[C@@H](CCC(N)=O)C(=O)N[C@H](C(=O)N[C@@H](CC(N)=O)C(=O)O)C(C)C)C(C)C)C(C)C` [εpss, reference compound] (H-ERMRPRKRQGSVRRRVHQVN-OH) was 13.3 ± 2.1 µM. Take “A-X-A + A-A-T: Par3CR3 combining both site 1 and site 3 mutations (LAAQAEGFGRQSMSEAATK)”: the “interaction with / affinity for PKCιKD-2P (in words)” value in experiment [2] is given as “no measurable interaction”. For the same molecule, the “phosphorylation as substrate by PKCι in vitro (in words)” value in experiment [1] (in vitro kinase assay) is recorded as “not detectably phosphorylated”. On to `CSCC[C@H](NC(=O)[C@H](COP(=O)(O)O)NC(=O)[C@H](CCC(N)=O)NC(=O)[C@H](CCCNC(=N)N)NC(=O)CNC(=O)[C@H](Cc1ccccc1)NC(=O)CNC(=O)[C@H](CCC(=O)O)NC(=O)[C@H](CCCNC(=N)N)NC(=O)[C@H](CCC(N)=O)NC(=O)[C@H](Cc1ccccc1)NC(=O)[C@H](C)NC(=O)[C@@H](N)CC(C)C)C(=O)N[C@@H](CO)C(=O)N[C@@H](CCC(=O)O)C(=O)N[C@@H](CCCCN)C(=O)N[C@@H](CCCNC(=N)N)C(=O)N[C@H](C(=O)N[C@@H](CCCCN)C(=O)N[C@@H](CCC(N)=O)C(=O)O)[C@@H](C)O` [Par-3CR3pS827] (H-LAFQREGFGRQ[pS]MSEKRTKQ-OH; N-terminus and C-terminus assumed), for which, in experiment [2], the “interaction with / affinity for PKCιKD-2P (in words)” value was “two orders of magnitude lower”. For the molecule `CSCC[C@H](NC(=O)[C@H](CO)NC(=O)[C@H](CCC(N)=O)NC(=O)[C@H](CCCNC(=N)N)NC(=O)CNC(=O)[C@H](Cc1ccccc1)NC(=O)CNC(=O)[C@H](CCC(=O)O)NC(=O)[C@H](CCCNC(=N)N)NC(=O)[C@H](CCC(N)=O)NC(=O)[C@H](Cc1ccccc1)NC(=O)[C@H](C)NC(=O)[C@@H](N)CC(C)C)C(=O)N[C@@H](CO)C(=O)N[C@@H](CCC(=O)O)C(=O)N[C@@H](C)C(=O)N[C@@H](C)C(=O)N[C@H](C(=O)N[C@@H](CCCCN)C(=O)N[C@@H](CCC(N)=O)C(=O)O)[C@@H](C)O` [Par-3CR3AAT] (H-LAFQREGFGRQSMSEAATKQ-OH; N-terminus and C-terminus assumed), the “increase of apparent kcat relative to wild-type Par3CR3” value in experiment [1] is recorded as 18 fold. `CSCC[C@H](NC(=O)[C@H](CCCNC(=N)N)NC(=O)[C@@H](N)CCC(=O)O)C(=O)N[C@@H](CCCNC(=N)N)C(=O)N1CCC[C@H]1C(=O)N[C@@H](CCCNC(=N)N)C(=O)N[C@@H](CCCCN)C(=O)N[C@@H](CCCNC(=N)N)C(=O)N[C@@H](CCC(N)=O)C(=O)NCC(=O)N[C@@H](CO)C(=O)N[C@H](C(=O)N[C@@H](CCCNC(=N)N)C(=O)N[C@@H](CCCNC(=N)N)C(=O)N[C@@H](CCCNC(=N)N)C(=O)N[C@@H](Cc1ccccc1)C(=O)N[C@@H](Cc1c[nH]cn1)C(=O)N[C@@H](CCC(N)=O)C(=O)N[C@H](C(=O)N[C@@H](CC(N)=O)C(=O)O)C(C)C)C(C)C` [ε +5Fpss] (H-ERMRPRKRQGSVRRRFHQVN-OH): in experiment [2], the Kd is 16.4 ± 3.5 µM. Turning to LAAQAEGFGRQSMSEKRTK (also: fluorescein label (position not given here)) [Par3CR3 A-X-A mutant peptide (F-Q-R to A-Q-A, site 1 affinity arm)], in experiment [3], the “fold increase of the apparent kcat of Par3CR3 phosphorylation by PKCιKD-2P, in vitro kinase assay” value was 57 fold. Besides, in experiment [4], binding was characterised by a dissociation constant (Kd) of 228 µM. In experiment [4], LAFQREGFGRQ[pS]MSEKRTK (also: fluorescein label (position not given here)) [phospho-S827 Par3 peptide (PKCι reaction product)] yielded a dissociation constant (Kd) of 115 µM.
